From BindingDB's records for doi:10.1021/jm00038a004 (University of Arizona, 1994)

Test: Binding affinity opioid receptor

Structure (SMILES) | IC50 [µM]
Cc1cc(O)cc(C)c1[C@H](C)[C@H](N)C(=O)N[C@H]1C(=O)NCC(=O)N[C@@H](Cc2ccccc2)C(=O)N[C@@H](C(=O)O)C(C)(C)SSC1(C)C [(4S,7S,13S)-13-[(2S,3S)-2-Amino-3-(4-hydroxy-2,6-dimethyl-phenyl)-butyrylamino]-7-benzyl-3,3,14,14-tetramethyl-6,9,12-trioxo-1,2-dithia-5,8,11-triaza-cyclotetradecane-4-carboxylic acid] | 0.722
Cc1cc(O)cc(C)c1[C@H](C)[C@H](N)C(=O)N[C@H](C)C(=O)N[C@@H](Cc1ccccc1)C(=O)N[C@@H](CC(=O)O)C(=O)N[C@H](C(=O)N[C@H](C(=O)NCC(N)=O)C(C)C)C(C)C [(S)-3-((S)-2-{(R)-2-[(2S,3S)-2-Amino-3-(4-hydroxy-2,6-dimethyl-phenyl)-butyrylamino]-propionylamino}-3-phenyl-propionylamino)-N-{(S)-1-[(S)-1-(carbamoylmethyl-carbamoyl)-2-methyl-propylcarbamoyl]-2-methyl-propyl}-succinamic acid] | 17.1
